From patent US6090802A, “1- Methylcarbapenem derivatives” (Sankyo Company, Limited, priority 1995, dated 2000)
≈ marks a conversion by molar mass, not a printed value.

Key:
[1] = system: Pseudomonas aeruginosa 1001; test: Antibacterial activity, agar plate dilution method (MIC); type: cell-based; settings: Microorganism C: Pseudomonas aeruginosa 1001; read-out: Minimal inhibitory concentration
Procedure: Antibacterial activity was measured by the agar plate dilution method, whereby the minimal inhibitory concentration (μg/ml) against various pathogenic bacteria was determined. In the Table, bacteria A, B and C provided for the test are as follows: C: Pseudomonas aeruginosa 1001

Escherichia coli NIHJ = test: as above; type: cell-based; settings: Microorganism B: Escherichia coli NIHJ; read-out: Minimal inhibitory concentration
Procedure: Antibacterial activity was measured by the agar plate dilution method, whereby the minimal inhibitory concentration (μg/ml) against various pathogenic bacteria was determined. In the Table, bacteria A, B and C provided for the test are as follows: B: Escherichia coli NIHJ

[2] = system: Staphylococcus aureus 209P; test: as above; type: cell-based; settings: Microorganism A: Staphylococcus aureus 209P; read-out: Minimal inhibitory concentration
Procedure: Antibacterial activity was measured by the agar plate dilution method, whereby the minimal inhibitory concentration (μg/ml) against various pathogenic bacteria was determined. In the Table, bacteria A, B and C provided for the test are as follows: A: Staphylococcus aureus […]

[3] = in words; background art; cited from earlier work

Row | MIC [1] [µg/mL] | MIC (Escherichia coli NIHJ) [µg/mL] | MIC [2] [µg/mL] | SMILES | nephrotoxicity [3]
1 | 0.2 (≈ 0.392 µM) | 0.02 (≈ 0.0392 µM) | ≤ 0.01 | C[C@@H](O)[C@H]1C(=O)N2C(C(=O)O)=C(S[C@@H]3CN[C@H](C(O)CC(=O)N4CCN(C(=N)N)CC4)C3)[C@H](C)[C@H]12 (stereo partly drawn) [Ex. 51, (1R,5S,6S)-2-[(2S,4S)-2-[2-(4-Guanylpiperazin-1-ylcarbonyl)-1-hydroxyethyl]-pyrrolidin-4-ylthio]-6-[(1R)-1-hydroxyethyl]-1-methyl-1-carbapen-2-em-3-carboxylic acid] | 
2 | 0.1 (≈ 0.192 µM) | ≤ 0.01 | ≤ 0.01 | C[C@@H](O)[C@H]1C(=O)N2C(C(=O)O)=C(S[C@@H]3CN[C@H](C(=O)N4CC[C@H](NC(=O)[C@@H]5CCCN5)C4)C3)[C@H](C)[C@H]12 [Ex. 1, (1R,5S,6S)-6-(1R)-[1-Hydroxyethyl]-1-methyl-2-[(2S,4S)-2-[(3S)-3-(L-prolylamino)pyrrolidin-1-ylcarbonyl]pyrrolidin-4-ylthio]-1-carbapen-2-em-3-carboxylic acid] | 
3 | 0.4 (≈ 0.854 µM) | 0.02 (≈ 0.0427 µM) | ≤ 0.01 | C[C@@H](O)[C@H]1C(=O)N2C(C(=O)O)=C(S[C@@H]3CN[C@H]([C@@H](O)CC(=O)N4CC[C@H](N)C4)C3)[C@H](C)[C@H]12 [Ex. 60, (1R,5S,6S)-2-[(2S,4S)-2-[2-[(3S)-3-Aminopyrrolidin-1-ylcarbonyl]-(1S)-1-hydroxyethyl]pyrrolidin-4-ylthio]-6-[(1R)-1-hydroxyethyl]-1-methyl-1-carbapen-2-em-3-carboxylic acid] | 
4 | 0.4 (≈ 0.854 µM) | 0.02 (≈ 0.0427 µM) | ≤ 0.01 | C[C@@H](O)[C@H]1C(=O)N2C(C(=O)O)=C(S[C@@H]3CN[C@H](C(O)CC(=O)N[C@H]4CCNC4)C3)[C@H](C)[C@H]12 (stereo partly shown) [Ex. 49] | 
5 | 0.05 (≈ 0.0955 µM) | ≤ 0.01 | ≤ 0.01 | C[C@@H](O)[C@H]1C(=O)N2C(C(=O)O)=C(S[C@@H]3CN[C@H](C(=O)N4CC(NC(=O)CCNC(=N)N)C4)C3)[C@H](C)[C@H]12 [Ex. 17, (1R,5S,6S)-2-[(2S,4S)-2-[3-(3-Guanidinopropanoylamino)azetidin-1-ylcarbonyl]-pyrrolidin-4-ylthio]-6-[(1R)-1-hydroxyethyl]-1-methyl-1-carbapen-2-em-3-carboxylic acid] | 
6 | 0.2 (≈ 0.427 µM) | 0.02 (≈ 0.0427 µM) | ≤ 0.01 | C[C@@H](O)[C@H]1C(=O)N2C(C(=O)O)=C(S[C@@H]3CN[C@H]([C@H](O)CC(=O)N4CC[C@H](N)C4)C3)[C@H](C)[C@H]12 [Ex. 59, (1R,5S,6S)-2-[(2S,4S)-2-[2-[(3S)-3-Aminopyrrolidin-1-ylcarbonyl]-(1R)-1-hydroxyethyl]pyrrolidin-4-ylthio]-6-[(1R)-1-hydroxyethyl]-1-methyl-1-carbapen-2-em-3-carboxylic acid] | 
7 | 0.2 (≈ 0.427 µM) | 0.02 (≈ 0.0427 µM) | ≤ 0.01 | C[C@@H](O)[C@H]1C(=O)N2C(C(=O)O)=C(S[C@@H]3CN[C@H](C(O)CC(=O)N4CC[C@H](N)C4)C3)[C@H](C)[C@H]12 (stereo partly drawn) [Ex. 12, (1R,5S,6S)-2-[(2S,4S)-2-[1-Hydroxy-2-[(3S)-3-aminopyrrolidin-1-ylcarbonyl]ethyl]-pyrrolidin-4-ylthio]-6-[(1R)-1-hydroxyethyl]-1-methyl-1-carbapen-2-em-3-carboxylic acid] | 
8 | 0.05 (≈ 0.093 µM) | ≤ 0.01 | ≤ 0.01 | C[C@@H](NC(=N)N)C(=O)N[C@H]1CCN(C(=O)[C@@H]2C[C@H](SC3=C(C(=O)O)N4C(=O)[C@H]([C@@H](C)O)[C@H]4[C@H]3C)CN2)C1 [Ex. 27, (1R,5S,6S)-2-[(2S,4S)-2-[(3S)-3-[(2R)-2-Guanidino-2-methylacetylamino]pyrrolidin-1-ylcarbonyl]pyrrolidin-4-ylthio]-6-[(1R)-1-hydroxyethyl]-1-methyl-1-carbapen-2-em-3-carboxylic acid] | 
9 | 0.05 (≈ 0.0955 µM) | ≤ 0.01 | ≤ 0.01 | C[C@@H](O)[C@H]1C(=O)N2C(C(=O)O)=C(S[C@@H]3CN[C@H](C(=O)N4CC[C@H](NC(=O)CNC(=N)N)C4)C3)[C@H](C)[C@H]12 [Ex. 8] | 
10 | 3.1 (≈ 10.4 µM) | 0.05 (≈ 0.167 µM) | ≤ 0.01 | C[C@@H](O)[C@H]1C(=O)N2C(C(=O)O)=C(SCCN=CN)C[C@H]12 [Imipenem, imipenem, reference compound] | exhibits nephrotoxicity
